According to patent US7101878B1 (Agouron Pharmaceuticals, Inc., priority 1998, dated 2006):

These compounds were tested against T1, mouse GnRH receptor (Mus musculus, UniProt Q01776) (assay: Radioligand binding, 125I-GnRH-A, 293 cells expressing mouse GnRH receptors). Settings: 1 h, substrate remaining; 10 uM compound; closer to zero = closer to 100% inhibition; read-out: S%R 10 uM mGnRHR.
T1 construct: expressed in transfected cells; host or cells: 293 cells
T1 sequence (Q01776 1-327): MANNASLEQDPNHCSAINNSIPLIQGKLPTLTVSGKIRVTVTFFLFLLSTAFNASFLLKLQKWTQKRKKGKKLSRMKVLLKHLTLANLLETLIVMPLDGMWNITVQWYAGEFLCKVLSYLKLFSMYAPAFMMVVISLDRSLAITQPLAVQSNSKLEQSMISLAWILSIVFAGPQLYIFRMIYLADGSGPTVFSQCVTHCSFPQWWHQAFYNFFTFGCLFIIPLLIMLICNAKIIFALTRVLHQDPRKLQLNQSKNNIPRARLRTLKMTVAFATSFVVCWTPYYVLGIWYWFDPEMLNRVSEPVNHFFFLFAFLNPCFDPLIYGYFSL
Method in brief: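 Bound label captured on 0.1% polyethyleneimine-treated GF/C filters, washed three times with PBS, counted. IC50 derived; identical set-up for every species.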

| SMILES | remaining activity at 10 µM |
| --- | --- |
| Cc1cnc(CNC(=O)c2ccc(Cc3cc4c(cc3C)C(C)(C)CCC4(C)C)o2)cn1 [Compound 525] | -9% |
| Cc1cc2c(cc1Cc1ccc(C(=O)NCCc3cccc(C(F)(F)F)c3)o1)C(C)(C)CCC2(C)C [Compound 526] | 9% |
| Cc1cc2c(cc1Cc1ccc(C(=O)NCC3Nc4ccccc4N3)o1)C(C)(C)CCC2(C)C [Compound 529] | -3% |
| Cc1cc2c(cc1Cc1ccc(C(=O)NCC3CCN(c4ccnc(Cl)n4)CC3)o1)C(C)(C)CCC2(C)C [Compound 530] | -4% |
| Cc1cc2c(cc1Cc1ccc(C(=O)N(CCN3CCOCC3)Cc3ccccc3)o1)C(C)(C)CCC2(C)C [Compound 534] | 9% |
| Cc1cc2c(cc1Cc1ccc(C(=O)N(C)CCC=C3c4ccccc4CCc4ccccc43)o1)C(C)(C)CCC2(C)C [Compound 535] | 43% |
| Cc1cc2c(cc1Cc1ccc(C(=O)N(CCN3CCCC3)Cc3ccccc3)o1)C(C)(C)CCC2(C)C [Compound 540] | 0% |
| Cc1cc2c(cc1Cc1ccc(C(=O)N3CCC(C(=O)c4ccccc4)CC3)o1)C(C)(C)CCC2(C)C [Compound 542] | 42% |
| Cc1cc2c(cc1Cc1ccc(C(=O)NC(C)C3CCCCC3)o1)C(C)(C)CCC2(C)C (centres unmarked) [Compound 546] | 29% |
| Cc1cc2c(cc1Cc1ccc(C(=O)N(Cc3ccc(C(C)C)cc3)Cc3cccnc3)o1)C(C)(C)CCC2(C)C [Compound 547] | 24% |
| Cc1cc2c(cc1Cc1ccc(C(=O)N3CCC[C@H]3CNc3ccccc3)o1)C(C)(C)CCC2(C)C [Compound 549] | 48% |
| Cc1cc2c(cc1Cc1ccc(C(=O)N(Cc3cccnc3)Cc3cccc(C(F)(F)F)c3)o1)C(C)(C)CCC2(C)C [Compound 551] | 21% |
| COc1cccc(N2CCN(C(=O)c3ccc(Cc4cc5c(cc4C)C(C)(C)CCC5(C)C)o3)CC2)c1 [Compound 553] | 34% |
| COc1ccccc1N1CCN(C(=O)c2ccc(Cc3cc4c(cc3C)C(C)(C)CCC4(C)C)o2)CC1 [Compound 554] | 27% |
| Cc1cc2c(cc1Cc1ccc(C(=O)N3CCN(CC(=O)N4CCCC4)CC3)o1)C(C)(C)CCC2(C)C [Compound 555] | 21% |
| Cc1cc2c(cc1Cc1ccc(C(=O)N3CCc4ccccc4C3)o1)C(C)(C)CCC2(C)C [Compound 562] | 30% |
| Cc1ccc(N2CCN(C(=O)c3ccc(Cc4cc5c(cc4C)C(C)(C)CCC5(C)C)o3)CC2)c(C)c1 [Compound 565] | 48% |
| Cc1cc2c(cc1Cc1ccc(C(=O)N(CCCN3CCN(C)CC3)Cc3cc(C)n(-c4cccc(C(F)(F)F)c4)c3C)o1)C(C)(C)CCC2(C)C [Compound 567] | -1% |
| Cc1cc2c(cc1Cc1ccc(C(=O)N3CCC(O)(c4ccc(Cl)cc4)CC3)o1)C(C)(C)CCC2(C)C [Compound 569] | 58% |
| Cc1cc2c(cc1Cc1ccc(C(=O)NC3c4ccccc4-c4ccccc43)o1)C(C)(C)CCC2(C)C [Compound 570] | 48% |
| Cc1cc2c(cc1Cc1ccc(C(=O)N3CCC(C(=O)c4ccc(F)cc4)CC3)o1)C(C)(C)CCC2(C)C [Compound 573] | 37% |
| Cc1cc2c(cc1Cc1ccc(C(=O)N(CCN(C)C)Cc3cccc4ccccc34)o1)C(C)(C)CCC2(C)C [Compound 575] | -3% |
| CC(=O)N1CCN(C(=O)c2ccc(Cc3cc4c(cc3C)C(C)(C)CCC4(C)C)o2)CC1 [Compound 577] | 30% |
| COc1ccc(C(NC(=O)c2ccc(Cc3cc4c(cc3C)C(C)(C)CCC4(C)C)o2)C2CC2)cc1 (centres unmarked) [Compound 578] | 17% |
| Cc1cc2c(cc1Cc1ccc(C(=O)N3CCN(c4cccc(C)c4C)CC3)o1)C(C)(C)CCC2(C)C [Compound 581] | 43% |
| Cc1cc2c(cc1Cc1ccc(C(=O)N(CCCN3CCN(C)CC3)Cc3ccc(F)cc3)o1)C(C)(C)CCC2(C)C [Compound 583] | -3% |
| Cc1cc2c(cc1Cc1ccc(C(=O)N3CCC(Cc4ccccc4)CC3)o1)C(C)(C)CCC2(C)C [Compound 585] | 52% |
| Cc1cc2c(cc1Cc1ccc(C(=O)N3CCCCC3C(=O)NC(c3ccccc3)c3ccccc3)o1)C(C)(C)CCC2(C)C (centres unmarked) [Compound 586] | 57% |
| Cc1cc2c(cc1Cc1ccc(C(=O)N3CCC(N4CCCC4)CC3)o1)C(C)(C)CCC2(C)C [Compound 588] | 4% |

The remaining lines, values ahead:

| remaining activity at 10 µM | SMILES |
| --- | --- |
| 35% | Cc1cc2c(cc1Cc1ccc(C(=O)NCCc3ccc(Cl)cc3Cl)o1)C(C)(C)CCC2(C)C [Compound 524] |
| 4% | Cc1cc2c(cc1Cc1ccc(C(=O)NCCCO)o1)C(C)(C)CCC2(C)C [Compound 531] |
| 12% | CCN(CC)CCN(C)C(=O)c1ccc(Cc2cc3c(cc2C)C(C)(C)CCC3(C)C)o1 [Compound 532] |
| 29% | Cc1cc2c(cc1Cc1ccc(C(=O)NC(C)(C)C)o1)C(C)(C)CCC2(C)C [Compound 533] |
| 38% | CCOC(=O)CN(Cc1ccccc1)C(=O)c1ccc(Cc2cc3c(cc2C)C(C)(C)CCC3(C)C)o1 [Compound 536] |
| 32% | Cc1cc2c(cc1Cc1ccc(C(=O)N3CCN(CCO)CC3)o1)C(C)(C)CCC2(C)C [Compound 537] |
| 17% | C=CCN(CC=C)C(=O)c1ccc(Cc2cc3c(cc2C)C(C)(C)CCC3(C)C)o1 [Compound 538] |
| 19% | CCN(CCO)C(=O)c1ccc(Cc2cc3c(cc2C)C(C)(C)CCC3(C)C)o1 [Compound 539] |
| 9% | Cc1cc2c(cc1Cc1ccc(C(=O)N(CCC#N)Cc3cccnc3)o1)C(C)(C)CCC2(C)C [Compound 541] |
| 31% | Cc1cc2c(cc1Cc1ccc(C(=O)N3CC=CCC3)o1)C(C)(C)CCC2(C)C [Compound 543] |
| 27% | CC(=O)N(C)C1CCN(C(=O)c2ccc(Cc3cc4c(cc3C)C(C)(C)CCC4(C)C)o2)C1 (centres unmarked) [Compound 544] |
| 28% | Cc1cc2c(cc1Cc1ccc(C(=O)NCCc3ccccc3)o1)C(C)(C)CCC2(C)C [Compound 545] |
| 12% | Cc1cc2c(cc1Cc1ccc(C(=O)N(C)C3CCN(C)CC3)o1)C(C)(C)CCC2(C)C [Compound 548] |
| 3% | Cc1cc2c(cc1Cc1ccc(C(=O)NC3(CO)CCCC3)o1)C(C)(C)CCC2(C)C [Compound 550] |
| 58% | Cc1cc2c(cc1Cc1ccc(C(=O)NCCn3c([N+](=O)[O-])cnc3C)o1)C(C)(C)CCC2(C)C [Compound 552] |
| 10% | Cc1cc2c(cc1Cc1ccc(C(=O)NCC(C)O)o1)C(C)(C)CCC2(C)C (centres unmarked) [Compound 556] |
| 10% | COCC(C)NC(=O)c1ccc(Cc2cc3c(cc2C)C(C)(C)CCC3(C)C)o1 (centres unmarked) [Compound 557] |
| 24% | Cc1cc2c(cc1Cc1ccc(C(=O)NC(CO)CC3CCCCC3)o1)C(C)(C)CCC2(C)C (centres unmarked) [Compound 558] |

| remaining activity at 10 µM | SMILES |
| --- | --- |
| 26% | Cc1cc2c(cc1Cc1ccc(C(=O)N(CC#N)Cc3ccccc3)o1)C(C)(C)CCC2(C)C [Compound 559] |
| 7% | Cc1cc2c(cc1Cc1ccc(C(=O)NCCCOC(C)C)o1)C(C)(C)CCC2(C)C [Compound 560] |
| 0% | Cc1cc2c(cc1Cc1ccc(C(=O)NCCSCCO)o1)C(C)(C)CCC2(C)C [Compound 561] |
| 13% | Cc1cc2c(cc1Cc1ccc(C(=O)N3CCCCCCC3)o1)C(C)(C)CCC2(C)C [Compound 563] |
| 45% | Cc1cc2c(cc1Cc1ccc(C(=O)NC(C)(CO)CO)o1)C(C)(C)CCC2(C)C [Compound 564] |
| 3% | Cc1cc2c(cc1Cc1ccc(C(=O)NC[C@@H]3CCCC[C@H]3O)o1)C(C)(C)CCC2(C)C [Compound 566] |
| 28% | CCC(C)CNC(=O)c1ccc(Cc2cc3c(cc2C)C(C)(C)CCC3(C)C)o1 (centres unmarked) [Compound 568] |
| 36% | Cc1cc2c(cc1Cc1ccc(C(=O)NCC3(O)CCCCC3)o1)C(C)(C)CCC2(C)C [Compound 571] |
| 41% | Cc1cc2c(cc1Cc1ccc(C(=O)NC3CCC3)o1)C(C)(C)CCC2(C)C [Compound 572] |
| 13% | Cc1cc2c(cc1Cc1ccc(C(=O)NC(CO)C(C)C)o1)C(C)(C)CCC2(C)C (centres unmarked) [Compound 574] |
| 15% | Cc1cc2c(cc1Cc1ccc(C(=O)N(C)CC3OCCO3)o1)C(C)(C)CCC2(C)C [Compound 576] |
| 10% | Cc1cc2c(cc1Cc1ccc(C(=O)N3CC(C)CC(C)C3)o1)C(C)(C)CCC2(C)C (centres unmarked) [Compound 579] |
| 18% | Cc1cc2c(cc1Cc1ccc(C(=O)N(C)CC#N)o1)C(C)(C)CCC2(C)C [Compound 580] |
| -2% | Cc1cc2c(cc1Cc1ccc(C(=O)NC[C@@H]3CCCO3)o1)C(C)(C)CCC2(C)C [Compound 582] |
| 15% | Cc1cc2c(cc1Cc1ccc(C(=O)N(CC(C)C)CC(C)C)o1)C(C)(C)CCC2(C)C [Compound 584] |
| 29% | Cc1cc2c(cc1Cc1ccc(C(=O)NC(C)CCCC(C)C)o1)C(C)(C)CCC2(C)C (centres unmarked) [Compound 587] |
| 35% | CCCN(Cc1ccc([N+](=O)[O-])cc1)C(=O)c1ccc(Cc2cc3c(cc2C)C(C)(C)CCC3(C)C)o1 [Compound 589] |

Same assay, conditions: substrate remaining; 10 uM compound; closer to zero = closer to 100% inhibition

| S%R 10 uM mGnRHR | SMILES |
| --- | --- |
| 10% | Cc1cc2c(cc1Cc1ccc(C(=O)NCCc3c[nH]cn3)o1)C(C)(C)CCC2(C)C [Compound 527] |
